Assay results reported in article PMC5766609 (Scientific Reports, 2018).
Where two headings read alike, the source gives them in different places. Residues, ends and D or L forms follow the SMILES beside them.

Columns and labels:
[1] = target: T1, human glucagon receptor (GCGR) (Homo sapiens, UniProt P47871); assay: cAMP assay on CHO-JumpIn cells stably transfected with human glucagon receptor (HitHunter cAMP); assay type: cell-based; details: cAMP accumulation, CHO-JumpIn cells with human GCGR, value ± spread;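 also: peptides tested as 4-fold serial dilutions starting from a 2 µM solution, cells exposed 1 hr at RT in darkness, cAMP quantified against a cAMP standard curve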
T1 construct: expressed in transfected cells; host or cells: CHO-JumpIn cells, stably transfected
Protocol: (§1) Briefly, a 2 μM solution of peptide was prepared, and 4-fold serial dilutions were made. 150 nL of the above titration was then dispensed into an Optiplate384 using an Echo555. […] The HitHunter® cAMP Assay kit calibration curve was prepared following the manufacturer’s protocol (DiscoveRx-90-0075L). 30,000 cells/well were added to the peptides, spun briefly at 500 rpm for 15 s and incubated at RT in the dark for 1 hr. The assay was developed as per the manufacturer’s instructions. cAMP accumulation due to GLP1R agonism or GCGR agonism was measured using an EnVision platereader (PerkinElmer), and calibrated using the cAMP standard curve. Data were analyzed using Assay Data Analyzer (ADA).

[2] = target: T2, human GLP-1 receptor (GLP1R) (Homo sapiens, UniProt P43220); assay: cAMP assay on CHO-JumpIn cells stably transfected with human GLP-1 receptor (HitHunter cAMP); assay type: cell-based; details: Table 2, cAMP accumulation, buffer PBS, 0.1% BSA, 100 μM RO 20-1724, 20% serum, 1 hr at RT, value ± spread, read-out: EC50 GLP1R;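 also: peptides tested as 4-fold serial dilution series, cells exposed 1 hr at RT in the dark, cAMP quantified against a cAMP standard calibration curve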
T2 construct: expressed in transfected cells; host or cells: CHO-JumpIn cells, stably transfected
Protocol: as §1

[3] = Table 2, buffer PBS, 0.1% BSA, 100 μM RO 20-1724, 20% serum, 1 hr at RT, read-out: EC50 GCGR

T1 sequence (P47871 26-477): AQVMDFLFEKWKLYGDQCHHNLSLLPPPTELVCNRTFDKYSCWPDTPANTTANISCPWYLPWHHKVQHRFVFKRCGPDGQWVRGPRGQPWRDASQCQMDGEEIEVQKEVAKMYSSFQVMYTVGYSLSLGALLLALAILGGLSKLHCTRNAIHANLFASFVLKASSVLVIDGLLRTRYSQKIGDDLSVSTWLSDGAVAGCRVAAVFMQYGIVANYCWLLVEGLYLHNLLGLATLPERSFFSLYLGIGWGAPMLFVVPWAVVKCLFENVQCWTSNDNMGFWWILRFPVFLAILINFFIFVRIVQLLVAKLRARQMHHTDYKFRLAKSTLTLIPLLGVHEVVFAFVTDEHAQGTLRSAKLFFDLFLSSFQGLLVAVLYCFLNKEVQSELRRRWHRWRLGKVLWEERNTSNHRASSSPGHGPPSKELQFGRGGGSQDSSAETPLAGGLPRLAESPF
T2 sequence (P43220 24-463): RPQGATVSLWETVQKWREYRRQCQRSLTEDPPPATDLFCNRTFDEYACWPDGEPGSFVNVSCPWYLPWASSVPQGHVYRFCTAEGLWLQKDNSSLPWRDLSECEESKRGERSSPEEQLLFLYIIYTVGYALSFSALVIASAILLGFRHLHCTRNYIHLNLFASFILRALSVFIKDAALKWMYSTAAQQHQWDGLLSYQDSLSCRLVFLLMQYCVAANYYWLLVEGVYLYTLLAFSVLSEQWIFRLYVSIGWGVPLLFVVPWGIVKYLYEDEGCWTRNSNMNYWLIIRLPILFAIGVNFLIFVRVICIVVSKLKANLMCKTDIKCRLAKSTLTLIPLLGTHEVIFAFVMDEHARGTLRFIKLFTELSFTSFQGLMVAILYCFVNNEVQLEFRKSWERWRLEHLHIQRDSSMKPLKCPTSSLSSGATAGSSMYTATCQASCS

EC50 [1, 3] [nM] | EC50 [2] [nM] | EC50 ([1]; Table 3, engineered versus parent peptides, read-out: EC50 hGCGR) [nM] | Structure (SMILES)
2.6 ± 3.68 |  |  | CC[C@H](C)[C@H](N)C(=O)N[C@@H](CC(N)=O)C(=O)N[C@@H](Cc1c[nH]cn1)C(=O)N[C@@H](CCC(=O)O)C(=O)N[C@@H](CCC(N)=O)C(=O)N[C@@H](Cc1c[nH]c2ccccc12)C(=O)N[C@@H](C)C(=O)N[C@@H](Cc1ccccc1)C(=O)N[C@H](C(=O)N[C@@H](CO)C(=O)N[C@@H](CC(=O)O)C(=O)N[C@@H](Cc1ccc(O)cc1)C(=O)N[C@@H](CO)C(=O)N[C@@H](CCCCN)C(=O)N[C@@H](Cc1ccc(O)cc1)C(=O)N[C@@H](CC(C)C)C(=O)N[C@@H](CC(=O)O)C(=O)N[C@@H](CO)C(=O)N[C@@H](CCCNC(=N)N)C(=O)N[C@@H](CCCNC(=N)N)C(=O)N[C@@H](C)C(=O)N[C@@H](CCC(N)=O)C(=O)N[C@@H](CC(=O)O)C(=O)N[C@@H](Cc1ccccc1)C(=O)N[C@H](C(=O)N[C@@H](CCC(N)=O)C(=O)N[C@@H](Cc1c[nH]c2ccccc12)C(=O)N[C@@H](CC(C)C)C(=O)N[C@@H](CCSC)C(=O)N[C@@H](CC(N)=O)C(=O)N[C@H](C(N)=O)[C@@H](C)O)C(C)C)[C@@H](C)O [Peptide 14] (H-INHEQWAFTSDYSKYLDSRRAQDFVQWLMNT-NH2)
0.032 ± 0.003 | 0.08 ± 0.006 |  | CSCC[C@H](NC(=O)[C@H](CC(C)C)NC(=O)[C@H](Cc1c[nH]c2ccccc12)NC(=O)[C@H](CCC(N)=O)NC(=O)[C@@H](NC(=O)[C@H](Cc1ccccc1)NC(=O)[C@H](CC(=O)O)NC(=O)[C@H](CCC(N)=O)NC(=O)[C@H](C)NC(=O)[C@H](CCCNC(=N)N)NC(=O)[C@H](CCCNC(=N)N)NC(=O)[C@H](CO)NC(=O)[C@H](CC(=O)O)NC(=O)[C@H](CC(C)C)NC(=O)[C@H](Cc1ccc(O)cc1)NC(=O)[C@H](CCCCN)NC(=O)[C@H](CO)NC(=O)[C@H](Cc1ccc(O)cc1)NC(=O)[C@H](CC(=O)O)NC(=O)[C@H](CO)NC(=O)[C@@H](NC(=O)[C@H](Cc1ccccc1)NC(=O)[C@@H](NC(=O)CNC(=O)[C@H](Cc1c[nH]cn1)NC(=O)[C@H](CO)NC(=O)[C@@H](N)Cc1c[nH]cn1)[C@@H](C)O)[C@@H](C)O)C(C)C)C(=O)N[C@H](C(=O)N[C@H](C(N)=O)[C@@H](C)O)[C@@H](C)O [Peptide 29]
 | 0.018 ± 0.001 |  | CC(C)C[C@H](NC(=O)[C@H](CC(C)C)NC(=O)[C@H](Cc1c[nH]c2ccccc12)NC(=O)[C@H](CCC(N)=O)NC(=O)[C@@H](NC(=O)[C@H](Cc1ccccc1)NC(=O)[C@H](CC(=O)O)NC(=O)[C@H](CCC(N)=O)NC(=O)[C@H](C)NC(=O)[C@H](CCCNC(=N)N)NC(=O)[C@H](CCCNC(=N)N)NC(=O)[C@H](CO)NC(=O)[C@H](CC(=O)O)NC(=O)[C@H](CC(C)C)NC(=O)[C@H](Cc1ccc(O)cc1)NC(=O)[C@H](CCCCN)NC(=O)[C@H](CO)NC(=O)[C@H](Cc1ccc(O)cc1)NC(=O)[C@H](CC(=O)O)NC(=O)[C@H](CO)NC(=O)[C@@H](NC(=O)[C@H](Cc1ccccc1)NC(=O)[C@@H](NC(=O)CNC(=O)[C@H](CCC(N)=O)NC(=O)[C@H](CO)NC(=O)[C@@H](N)Cc1c[nH]cn1)[C@@H](C)O)[C@@H](C)O)C(C)C)C(=O)N[C@@H](CC(=O)O)C(=O)N[C@@H](CO)C(N)=O [Peptide 35]
 |  | 0.023 ± 0.004 | CCCCCCCCCCCCCCCC(=O)N[C@@H](CCC(=O)N[C@@H](CCC(=O)NCCCC[C@H](NC(=O)[C@H](CC(=O)O)NC(=O)[C@H](CO)NC(=O)[C@@H](NC(=O)[C@H](Cc1ccccc1)NC(=O)[C@@H](NC(=O)CNC(=O)[C@H](CCC(N)=O)NC(=O)[C@@H](CO)NC(=O)[C@@H](N)Cc1c[nH]cn1)[C@@H](C)O)[C@@H](C)O)C(=O)N[C@@H](CO)C(=O)N[C@@H](CCCCN)C(=O)N[C@@H](Cc1ccc(O)cc1)C(=O)N[C@@H](CC(C)C)C(=O)N[C@@H](CC(=O)O)C(=O)N[C@@H](CO)C(=O)N[C@@H](CCCNC(=N)N)C(=O)N[C@@H](CCCNC(=N)N)C(=O)N[C@@H](C)C(=O)N[C@@H](Cc1c[nH]cn1)C(=O)N[C@@H](CC(=O)O)C(=O)N[C@@H](Cc1ccccc1)C(=O)N[C@H](C(=O)N[C@@H](CCC(N)=O)C(=O)N[C@@H](Cc1c[nH]c2ccccc12)C(=O)N[C@@H](CC(C)C)C(=O)N[C@@H](CC(C)C)C(=O)N[C@@H](CC(N)=O)C(=O)N[C@H](C(N)=O)[C@@H](C)O)C(C)C)C(=O)O)C(=O)O [Peptide 36]
